The source of these data is US8987195B2 (priority 2012, dated 2015).

Read-outs that look alike come from different tables or passages of the source.

One experiment relates to HCV genotype 1b replicon. In words: HCV replicon assay, genotype 1b replicon EC50. The class given is cell-based, Hepatitis C virus. The following applies: Hepatitis C virus, read-out: EC50 [gt-1b]. In short, it runs like this: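 Readout was replicon RNA copy number, by 32P-probe protection or TaqMan normalized to cellular cyclophilin A RNA, or luciferase activity for luciferase:Neo^r fusion lines. Cells were exposed to serially diluted compound for 24-48 hours without G418, then washed and lysed. EC50 derived from four-parameter fit relative to DMSO.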
On the technique in general: A replicon is a self-replicating genome or part of one, used to study replication in cells.

For experiment [1], the target named is HCV NS3/4A protease genotype 1b (Hepatitis C virus genotype 1b, UniProt P26663). In words: HCV NS3/4A protease time-resolved fluorescence (TRF) assay, Ki against genotype 1b. The class given is biochemical. In short, it runs like this:
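Enzyme was pre-incubated 30 min with inhibitor in HEPES pH 7.5 buffer (150 mM NaCl, 15% glycerol, 10 mM DTT). Reaction ran 2.5 h at room temperature with 25 nM europium TRF peptide substrate, read at ex 340/em 615 nm. Enzyme levels: 0.2 nM (1b), 0.4 nM (A156T), 0.025 nM (3a). Ki came from four-parameter IC50 via IC50=Ki(1+[S]/KM).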

[2] abbreviates: HCV replicon, genotype 1b, K+ salt.
[3] abbreviates: IC50 [gt-1b], NS3/4A protease TRF assay, genotype 1b enzyme 0.2 nM, K+ salt.
Setting [4] is: IC50 [gt-1b], NS3/4A protease TRF assay, genotype 1b enzyme 0.2 nM.
[5] abbreviates: IC50 [gt-1b] (nM), NS3/4A genotype 1b, enzyme 0.2 nM, K+ salt.
The mark [6] stands for this setting: genotype 1b replicon, HCOOH salt.
The mark [7] stands for this setting: IC50 [gt-1b] (nM), NS3/4A genotype 1b, enzyme 0.2 nM, HCOOH salt.

The term EC50 denotes the concentration at which the effect is half-maximal. Broadly, the IC50 is the concentration needed to halve the response being measured. Turning to `COc1ccc2nc(C(F)(F)F)c3c(c2c1)CC[C@]1(C[C@H]2C(=O)N[C@]4(C(=O)NS(=O)(=O)C5(C)CC5)C[C@H]4/C=C\CCCCC[C@H](NC(=O)OC4(C)COC4)C(=O)N2C1)O3` [Example 422, 3-methyloxetan-3-yl [(2R,6S,12Z,13aS,14aR,16aS)-9′-methoxy-14a-{[(1-methylcyclopropyl)sulfonyl]carbamoyl}-5,16-dioxo-5′-(trifluoromethyl)-1,1′,2′,5,6,7,8,9,10,11,13a,14,14a,15,16,16a-hexadecahydrospiro[cyclopropa[e]pyrrolo[1,2-a][1,4]diazacyclopentadecine-2,3′-pyrano[2,3-c]quinolin]-6-yl]carbamate], in the experiment on HCV genotype 1b replicon (setting [2]), the EC50 stood at 3.14 nM. Further, in experiment [1] (setting [3]), the IC50 is 0.008 nM.

On to `CC(C)COC(=O)N[C@H]1CCCCC/C=C\[C@@H]2C[C@@]2(C(=O)NS(=O)(=O)C2(C)CC2)NC(=O)[C@@H]2C[C@]3(CCc4c(c(C(F)(F)F)nc5ccc(Cl)cc45)O3)CN2C1=O` [Example 383, 2-methylpropyl [(2R,6S,12Z,13aS,14aR,16aS)-9′-chloro-14a-{[(1-methylcyclopropyl)sulfonyl]carbamoyl}-5,16-dioxo-5′-(trifluoromethyl)-1,1′,2′,5,6,7,8,9,10,11,13a,14,14a,15,16,16a-hexadecahydrospiro[cyclopropa[e]pyrrolo[1,2-a][1,4]diazacyclopentadecine-2,3′-pyrano[2,3-c]quinolin]-6-yl]carbamate], for which, in the experiment with HCV genotype 1b replicon (HCV replicon, genotype 1b), the EC50 was 38.3 nM. Further, half-maximal inhibition in experiment [1] (setting [4]) (IC50) was put at 0.024 nM.

Consider `COc1ccc2nc(C3CC3)c3c(c2c1)C(F)(F)C[C@]1(C[C@H]2C(=O)N[C@]4(C(=O)NS(=O)(=O)C5(C)CC5)C[C@H]4/C=C\CCCCC[C@H](NC(=O)O[C@H](C)C(C)C)C(=O)N2C1)O3` [Example 249, (2R)-3-methylbutan-2-yl [(2S,6S,12Z,13aS,14aR,16aS)-5′-cyclopropyl-1′,1′-difluoro-9′-methoxy-14a-{[(1-methylcyclopropyl)sulfonyl]carbamoyl}-5,16-dioxo-1,1′,2′,5,6,7,8,9,10,11,13a,14,14a,15,16,16a-hexadecahydrospiro[cyclopropa[e]pyrrolo[1,2-a][1,4]diazacyclopentadecine-2,3′-pyrano[2,3-c]quinolin]-6-yl]carbamate], for which the EC50 with HCV genotype 1b replicon (genotype 1b replicon, K+ salt) turned out to be 14.6 nM. Also, the IC50 in experiment [1] (setting [5]) was determined as 0.02 nM.

As to `CCCCNC(=O)N[C@H]1CCCCC/C=C\[C@@H]2C[C@@]2(C(=O)NS(=O)(=O)C2(C)CC2)NC(=O)[C@@H]2C[C@]3(CCc4c(c(C)nc5ccccc45)O3)CN2C1=O` [Example 287, (2R,6S,12Z,13aS,14aR,16aS)-6-[(butylcarbamoyl)amino]-5′-methyl-N-[(1-methylcyclopropyl)sulfonyl]-5,16-dioxo-1,1′,2′,6,7,8,9,10,11,13a,14,15,16,16a-tetradecahydrospiro[cyclopropa[e]pyrrolo[1,2-a][1,4]diazacyclopentadecine-2,3′-pyrano[2,3-c]quinoline]-14a(5H)-carboxamide], the EC50 in the experiment on HCV genotype 1b replicon (setting [6]) is 23 nM. Moreover, the IC50 in experiment [1] (setting [7]) was 0.013 nM.

For the compound `COc1ccc2nc(C(F)(F)F)c3c(c2c1)[C@](C)(F)C[C@]1(C[C@H]2C(=O)N[C@]4(C(=O)NS(=O)(=O)C5(C)CC5)C[C@H]4/C=C\CCCCC[C@H](NC(=O)OC(C)(C)C)C(=O)N2C1)O3` [Example 63, tert-Butyl ((1′R,2S,6S,13aS,14aR,16aS,Z)-1′-fluoro-9′-methoxy-1-methyl-14a-(((1-methylcyclopropyl)sulfonyl)carbamoyl)-5,16-dioxo-5′-(trifluoromethyl)-1′,2′,3,5,6,7,8,9,1011,13a,14,14a,15,16,16a-hexadecahydro-1H-spiro[cyclopropa[e]pyrrolo[1,2-a][1,4]diazacyclopentadecine-2,3′-pyrano[2,3-c]quinolin]-6-yl)carbamate], in the experiment with HCV genotype 1b replicon (genotype 1b replicon), the concentration giving a half-maximal response (EC50) was 0.245 nM. In addition, the half-maximal inhibitory concentration (IC50) in experiment [1] (IC50 [gt-1b] (nM), NS3/4A genotype 1b, enzyme 0.2 nM) is 0.007 nM.

In the case of `CC(C)(C)COC(=O)N[C@H]1CCCCC/C=C\[C@@H]2C[C@@]2(C(=O)NS(=O)(=O)C2(C)CC2)NC(=O)[C@@H]2C[C@]3(CCc4c(c(C(F)(F)F)nc5ccc(Cl)cc45)O3)CN2C1=O` [Example 386, 2,2-dimethylpropyl [(2R,6S,12Z,13aS,14aR,16aS)-9′-chloro-14a-{[(1-methylcyclopropyl)sulfonyl]carbamoyl}-5,16-dioxo-5′-(trifluoromethyl)-1,1′,2′,5,6,7,8,9,10,11,13a,14,14a,15,16,16a-hexadecahydrospiro[cyclopropa[e]pyrrolo[1,2-a][1,4]diazacyclopentadecine-2,3′-pyrano[2,3-c]quinolin]-6-yl]carbamate], in the experiment with HCV genotype 1b replicon (HCV replicon, genotype 1b), the half-maximal effective concentration (EC50) was 49.6 nM. It took 0.029 nM to reach half-maximal inhibition in experiment [1] (setting [4]) (IC50).

For the compound `COc1ccc2nc(C)c3c(c2c1)CC[C@]1(C[C@H]2C(=O)N[C@]4(C(=O)NS(=O)(=O)C5(C)CC5)C[C@H]4/C=C\CCCCC[C@H](Nc4ncccc4C)C(=O)N2C1)O3` [Example 429, (2R,6S,12Z,13aS,14aR,16aS)-9′-methoxy-5′-methyl-N-[(1-methylcyclopropyl)sulfonyl]-6-[(3-methylpyridin-2-yl)amino]-5,16-dioxo-1,1′,2′,6,7,8,9,10,11,13a,14,15,16,16a-tetradecahydrospiro[cyclopropa[e]pyrrolo[1,2-a][1,4]diazacyclopentadecine-2,3′-pyrano[2,3-c]quinoline]-14a(5H)-carboxamide], the 50% effective concentration (EC50) in the experiment on HCV genotype 1b replicon (HCV replicon, genotype 1b) was determined as 4.28 nM. In experiment [1] (setting [4]), the half-inhibitory concentration (IC50) was 0.194 nM.

As to `COc1ccc2nc(C)c3c(c2c1)[C@H](F)C[C@]1(C[C@H]2C(=O)N[C@]4(C(=O)NS(=O)(=O)C5(C)CC5)C[C@H]4/C=C\CCCCC[C@H](NC(=O)OCC(C)C)C(=O)N2C1)O3` [Example 372, 2-methylpropyl [(1′R,2S,6S,12Z,13aS,14aR,16aS)-1′-fluoro-9′-methoxy-5′-methyl-14a-{[(1-methylcyclopropyl)sulfonyl]carbamoyl}-5,16-dioxo-1,1′,2′,5,6,7,8,9,10,11,13a,14,14a,15,16,16a-hexadecahydrospiro[cyclopropa[e]pyrrolo[1,2-a][1,4]diazacyclopentadecine-2,3′-pyrano[2,3-c]quinolin]-6-yl]carbamate], in the experiment on HCV genotype 1b replicon (setting [2]), the EC50 came out at 2.12 nM. Moreover, the IC50 in experiment [1] (setting [3]) turned out to be 0.01 nM.

Take `COc1ccc2nc(C(F)(F)F)c3c(c2c1)CC[C@]1(C[C@H]2C(=O)N[C@]4(C(=O)NS(=O)(=O)C5(C)CC5)C[C@H]4/C=C\CCCCC[C@H](NC(=O)OC4CCC4)C(=O)N2C1)O3` [Example 450, cyclobutyl [(2R,6S,12Z,13aS,14aR,16aS)-9′-methoxy-14a-{[(1-methylcyclopropyl)sulfonyl]carbamoyl}-5,16-dioxo-5′-(trifluoromethyl)-1,1′,2′,5,6,7,8,9,10,11,13a,14,14a,15,16,16a-hexadecahydrospiro[cyclopropa[e]pyrrolo[1,2-a][1,4]diazacyclopentadecine-2,3′-pyrano[2,3-c]quinolin]-6-yl]carbamate]: the EC50 in the experiment with HCV genotype 1b replicon (HCV replicon, genotype 1b) worked out at 1.69 nM. In addition, half-maximal inhibition in experiment [1] (setting [4]) (IC50) required 0.019 nM.

For `COc1ccc2nc(C(F)(F)F)c3c(c2c1)CC[C@]1(C[C@H]2C(=O)N[C@]4(C(=O)NS(=O)(=O)C5(C)CC5)C[C@H]4/C=C\CCCCC[C@H](NC(=O)OC(C)C)C(=O)N2C1)O3` [Example 447, propan-2-yl [(2R,6S,12Z,13aS,14aR,16aS)-9′-methoxy-14a-{[(1-methylcyclopropyl)sulfonyl]carbamoyl}-5,16-dioxo-5′-(trifluoromethyl)-1,1′,2′,5,6,7,8,9,10,11,13a,14,14a,15,16,16a-hexadecahydrospiro[cyclopropa[e]pyrrolo[1,2-a][1,4]diazacyclopentadecine-2,3′-pyrano[2,3-c]quinolin]-6-yl]carbamate], the EC50 in the experiment on HCV genotype 1b replicon (HCV replicon, genotype 1b) came out at 1.37 nM. The compound also displayed a half-maximal inhibitory concentration (IC50) in experiment [1] (setting [4]) of 0.019 nM.

`Cc1nc2ccc(Cl)cc2c2c1O[C@]1(CC2)C[C@H]2C(=O)N[C@]3(C(=O)NS(=O)(=O)C4(C)CC4)C[C@H]3/C=C\CCCCC[C@H](NC(=O)OC3(C)CC3)C(=O)N2C1` [Example 184, 1-methylcyclopropyl [(2R,6S,12Z,13aS,14aR,16aS)-9′-chloro-5′-methyl-14a-{[(1-methylcyclopropyl)sulfonyl]carbamoyl}-5,16-dioxo-1,1′,2′,5,6,7,8,9,10,11,13a,14,14a,15,16,16a-hexadecahydrospiro[cyclopropa[e]pyrrolo[1,2-a][1,4]diazacyclopentadecine-2,3′-pyrano[2,3-c]quinolin]-6-yl]carbamate]: the half-maximal effective concentration (EC50) in the experiment with HCV genotype 1b replicon (genotype 1b replicon, K+ salt) is 4.22 nM. Moreover, the concentration for half-maximal inhibition (IC50) in experiment [1] (setting [5]) amounted to 0.004 nM.

In the case of `CCCCCOC(=O)N[C@H]1CCCCC/C=C\[C@@H]2C[C@@]2(C(=O)NS(=O)(=O)C2(C)CC2)NC(=O)[C@@H]2C[C@]3(CCc4c(c(C5CC5)nc5cc(OC)ccc45)O3)CN2C1=O` [Example 273, pentyl [(2R,6S,12Z,13aS,14aR,16aS)-5′-cyclopropyl-8′-methoxy-14a-{[(1-methylcyclopropyl)sulfonyl]carbamoyl}-5,16-dioxo-1,1′,2′,5,6,7,8,9,10,11,13a,14,14a,15,16,16a-hexadecahydrospiro[cyclopropa[e]pyrrolo[1,2-a][1,4]diazacyclopentadecine-2,3′-pyrano[2,3-c]quinolin]-6-yl]carbamate], the EC50 in the experiment with HCV genotype 1b replicon (setting [6]) stood at 163 nM. Moreover, in experiment [1] (setting [7]), the IC50 was 1.13 nM.
